Test results reported in patent US20070167452A1, “Therapeutic amide derivatives” (PFIZER, INC., priority 2004, published 2007).

Columns and labels:
NR2B receptor = target: T1, NR2B receptor (Rattus norvegicus, UniProt P35439+Q00960); assay: NR2B Binding Assay; conditions: forebrain P2 membranes of male CD rats; 5 nM [3H] NR2B ligand
T1 construct: Membranes were prepared by homogenization of forebrain of male CD rats; from tissue; host or cells: forebrain of male CD rats (P2 membrane)
Procedure: The activity of the cycloalkylene amide compounds of the present invention, as NR2B antagonists, is determined by their ability to inhibit the binding of NR2B subunit at its receptor sites employing radioactive ligands.
The NR^2B antagonist activity of the cycloalkylene amide compounds is evaluated by using the standard assay procedure described in, for example, J. Pharmacol., 331, pp 117-126, 1997. This method essentially involves determining the concentration of the individual compound required to reduce the amount of radiolabelled NR2B ligands by 50% at their receptor sites, thereby affording characteristic IC50 values for each compound tested. More specifically, the assay is carried out as follows.
Membranes were prepared by homogenization of forebrain of male CD rats weighing between 170˜190 g by using glass-Teflon homogenizer in 0.32 M sucrose at 4° C. The crude nuclear pellet was removed by centrifugation at 1000×g for 10 min, and the supernatant centrifuged at 17000×g for 25 min. The resulting pellet was resuspended in 5 mM Tris acetate pH 7.4 at 4° C. for 10 min to lyse cellular particles and again centrifuged at 17000×g. The resulting pellet (P2 membrane) was washed twice in Tris acetate, resuspended at 5.5 mg protein/ml and stored at −20° C. until use. All the manipulation was done on ice, and stock solution and equipment were kept on ice at all time.
For the saturation assay, receptor saturation was determined by incubating [^3H]-1-[(1S*,2S*)-2-hydroxy-2-(4-hydroxyphenyl)-1-methylethyl]-4-phenylpiperidin-4-ol and 50 μg protein of P2 membrane for 60 minutes at room temperature in a final 100 μl of incubation buffer (50 mM Tris HCl, pH7.4). Total and non-specific bindings (in the presence of 10 μM of unlabeled 1-[(1S*,2S*)-2-hydroxy-2-(4-hydroxyphenyl)-1-methylethyl]-4-phenylpiperidin-4-ol) were determined in a range of [^3H]-1-[(1S*,2S*)-2-hydroxy-2-(4-hydroxyphenyl)-1-methylethyl]-4-phenylpiperidin-4-ol concentrations (0.625 nM to 60 nM).
For the competition assay, test compounds were incubated in duplicate with 5 nM [^3H]-1-[(1S*,2S*)-2-hydroxy-2-(4-hydroxyphenyl)-1-methylethyl]-4-phenylpiperidin-4-ol and 50 μg protein of P2 membrane for 60 minutes at room temperature in a final 100 μl of 50 mM Tris HCl buffer (pH7.4). Nonspecific binding was determined by 10 μM of unlabeled 1-[(1S*,2S*)-2-hydroxy-2-(4-hydroxyphenyl)-1-methylethyl]-4-phenylpiperidin-4-ol (25 μl). The saturation derived KD gained in saturation assay was used for all Ki calculations.
All incubations were terminated by rapid vacuum filtration over 0.2% polyethyleneimine soaked Whatman GF/B glass fibre filter paper using a SKATRON cell harvester followed by three washes with ice-cold filtration buffer (5 mM Tris HCl, pH 7.4.). Receptor-bound radioactivity was quantified by liquid scintillation counting using Packard LS counter. Competition assays were performed by counting Wallac GF/B filters on Betaplate scintillation counter (Wallac).

Human HERG = Human HERG (Homo sapiens, UniProt Q12809); assay: Human Dofetilide Binding Assay
Human HERG, sequence (Q12809 whole entry): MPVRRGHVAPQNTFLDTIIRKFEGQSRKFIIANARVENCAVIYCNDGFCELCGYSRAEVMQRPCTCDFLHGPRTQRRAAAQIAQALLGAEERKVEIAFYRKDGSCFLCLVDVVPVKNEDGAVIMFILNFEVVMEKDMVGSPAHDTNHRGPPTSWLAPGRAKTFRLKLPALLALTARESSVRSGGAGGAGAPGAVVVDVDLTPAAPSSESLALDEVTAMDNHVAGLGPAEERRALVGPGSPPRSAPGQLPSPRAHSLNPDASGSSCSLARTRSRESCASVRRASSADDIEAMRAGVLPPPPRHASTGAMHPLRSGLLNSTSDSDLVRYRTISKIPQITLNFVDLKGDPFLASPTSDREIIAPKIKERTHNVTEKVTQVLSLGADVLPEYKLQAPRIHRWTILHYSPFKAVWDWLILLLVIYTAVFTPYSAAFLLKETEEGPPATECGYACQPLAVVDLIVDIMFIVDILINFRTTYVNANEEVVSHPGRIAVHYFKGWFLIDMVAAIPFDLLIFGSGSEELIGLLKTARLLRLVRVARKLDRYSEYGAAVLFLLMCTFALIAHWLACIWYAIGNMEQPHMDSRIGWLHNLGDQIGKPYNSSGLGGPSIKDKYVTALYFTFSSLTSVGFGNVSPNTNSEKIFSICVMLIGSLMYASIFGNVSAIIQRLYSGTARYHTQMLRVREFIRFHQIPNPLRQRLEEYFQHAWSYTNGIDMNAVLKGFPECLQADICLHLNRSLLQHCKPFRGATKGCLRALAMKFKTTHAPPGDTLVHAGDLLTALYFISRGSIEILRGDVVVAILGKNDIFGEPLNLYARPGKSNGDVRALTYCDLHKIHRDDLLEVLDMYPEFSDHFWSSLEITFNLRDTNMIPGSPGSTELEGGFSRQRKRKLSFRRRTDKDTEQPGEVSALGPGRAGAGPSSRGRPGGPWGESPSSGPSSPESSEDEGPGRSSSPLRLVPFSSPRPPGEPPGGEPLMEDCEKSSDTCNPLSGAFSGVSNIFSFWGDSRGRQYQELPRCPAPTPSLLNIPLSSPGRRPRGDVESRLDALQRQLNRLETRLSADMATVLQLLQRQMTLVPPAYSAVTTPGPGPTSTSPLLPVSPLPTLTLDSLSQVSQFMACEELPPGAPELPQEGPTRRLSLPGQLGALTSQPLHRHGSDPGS
Procedure: Human HERG transfected HEK293S cells were prepared and grown in-house. The collected cells were suspended in 50 mM Tris-HCl (pH 7.4 at 4° C.) and homogenized using a hand held Polytron PT 1200 disruptor set at full power for 20 sec on ice. The homogenates were centrifuged at 48,000×g at 4° C. for 20 min. The pellets were then resuspended, homogenized, and centrifuged once more in the same manner. The final pellets were resuspended in an appropriate volume of 50 mM Tris-HCl, 10 mM KCl, 1 mM MgCl2 (pH 7.4 at 4° C.), homogenized, aliquoted and stored at −80° C. until use. An aliquot of membrane fractions was used for protein concentration determination using BCA protein assay kit (PIERCE) and ARVOsx plate reader (Wallac).
Binding assays were conducted in a total volume of 200 μl in 96-well plates. Twenty μl of test compounds were incubated with 20 μl of [^3H]-dofetilide (Amersham, final 5 nM) and 160 μl of membrane homogenate (25 μg protein) for 60 minutes at room temperature. Nonspecific binding was determined by 10 μM dofetilide at the final concentration. Incubation was terminated by rapid vacuum filtration over 0.5% presoaked GF/B Betaplate filter using Skatron cell harvester with 50 mM Tris-HCl, 10 mM KCl, 1 mM MgCl2, pH 7.4 at 4° C. The filters were dried, put into sample bags and filled with Betaplate Scint. Radioactivity bound to filter was counted with Wallac Betaplate counter.

T1 sequence (Q00960 27-1482, other chains not shown): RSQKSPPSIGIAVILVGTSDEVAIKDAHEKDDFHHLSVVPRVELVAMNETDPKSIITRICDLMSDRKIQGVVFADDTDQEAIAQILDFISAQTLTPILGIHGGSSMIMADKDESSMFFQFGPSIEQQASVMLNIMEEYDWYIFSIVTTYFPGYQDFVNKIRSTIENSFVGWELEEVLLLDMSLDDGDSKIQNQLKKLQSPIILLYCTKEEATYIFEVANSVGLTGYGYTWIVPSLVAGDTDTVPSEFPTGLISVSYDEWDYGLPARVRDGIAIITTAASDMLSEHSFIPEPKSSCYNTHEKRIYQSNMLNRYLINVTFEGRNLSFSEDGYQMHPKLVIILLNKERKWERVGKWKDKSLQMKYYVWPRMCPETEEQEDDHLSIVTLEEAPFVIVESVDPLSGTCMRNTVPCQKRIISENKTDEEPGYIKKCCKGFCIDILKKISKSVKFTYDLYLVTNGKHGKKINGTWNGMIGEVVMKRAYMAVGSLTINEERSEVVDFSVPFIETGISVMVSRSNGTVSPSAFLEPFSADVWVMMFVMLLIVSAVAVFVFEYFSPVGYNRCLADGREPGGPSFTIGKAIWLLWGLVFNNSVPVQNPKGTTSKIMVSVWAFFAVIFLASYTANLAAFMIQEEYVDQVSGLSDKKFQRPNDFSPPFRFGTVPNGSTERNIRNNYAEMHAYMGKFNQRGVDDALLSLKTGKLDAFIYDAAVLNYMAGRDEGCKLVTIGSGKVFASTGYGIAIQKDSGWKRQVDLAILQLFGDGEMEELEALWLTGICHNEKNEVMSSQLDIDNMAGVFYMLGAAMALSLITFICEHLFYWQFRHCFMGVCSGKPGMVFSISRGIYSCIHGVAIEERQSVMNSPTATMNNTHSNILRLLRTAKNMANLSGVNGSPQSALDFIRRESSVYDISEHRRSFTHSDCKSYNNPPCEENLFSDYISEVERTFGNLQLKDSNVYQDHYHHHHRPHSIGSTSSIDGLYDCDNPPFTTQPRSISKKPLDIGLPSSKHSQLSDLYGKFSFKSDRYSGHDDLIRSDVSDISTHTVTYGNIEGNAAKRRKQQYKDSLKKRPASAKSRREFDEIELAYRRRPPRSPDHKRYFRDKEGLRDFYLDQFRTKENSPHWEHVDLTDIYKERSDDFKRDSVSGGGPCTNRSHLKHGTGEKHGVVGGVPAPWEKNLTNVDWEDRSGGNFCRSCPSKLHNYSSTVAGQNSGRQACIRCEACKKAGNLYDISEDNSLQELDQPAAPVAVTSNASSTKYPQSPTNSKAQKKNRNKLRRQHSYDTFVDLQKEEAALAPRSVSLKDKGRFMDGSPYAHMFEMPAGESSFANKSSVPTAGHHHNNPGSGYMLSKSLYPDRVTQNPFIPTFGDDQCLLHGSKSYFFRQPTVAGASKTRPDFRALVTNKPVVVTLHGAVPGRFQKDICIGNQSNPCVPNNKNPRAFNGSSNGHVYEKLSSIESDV

Row | Structure (SMILES) | IC50 (NR2B receptor) | IC50 (Human HERG)
1 | O=C(NC[C@H]1CC[C@@H](COc2ccccc2)CO1)c1ccc(O)cc1 [Example 35, (+)-4-Hydroxy-N-{[5S-(phenoxymethyl)tetrahydro-2H-pyran-2S-yl]methyl}benzamide] | 20.9 nM | 51600 nM
2 | O=C(NC[C@@H]1CC[C@H](COCc2ccccc2)CO1)c1ccc(O)cc1 [Example 40, 4-Hydroxy-N-{[5R-(benzyloxymethyl)tetrahydro-2H-pyran-2R-yl]methyl}benzamide] | 10.4 nM | > 100000 nM
3 | Nc1n[nH]cc1C(=O)NC[C@H]1CC[C@@H](COc2ccc(Cl)cc2)CO1 [Example 125, 3-Amino-N-({(2R,5R)-5-[(4-chlorophenoxy)methyl]tetrahydro-2H-pyran-2-yl}methyl)-1H-pyrazole-4-carboxamide] | 12.5 nM | > 30000 nM
4 | O=C(NC[C@]1(O)CC[C@H](COCc2ccccc2F)CC1)c1ccc(O)c(F)c1 [Example 69, 3-Fluoro-N-[(trans-4-{[(2-fluorobenzyl)oxy]methyl}-1-hydroxycyclohexyl)methyl]-4-hydroxybenzamide] | 13.2 nM | > 100000 nM
5 | O=C(NC[C@]1(O)CC[C@H](Cc2ccc(F)cc2)CC1)c1ccc(O)c(F)c1 [Example 80, 3-Fluoro-N-{[trans-4-(4-fluorobenzyl)-1-hydroxycyclohexyl]methyl}-4-hydroxybenzamide] | 8.9 nM | > 100000 nM
6 | O=C(NC[C@H]1CC[C@@H](COc2cccc(F)c2)CC1)c1cn[nH]c1 [Example 106, N-({cis-4-[(3-Fluorophenoxy)methyl]cyclohexyl}methyl)-1H-pyrazole-4-carboxamide] | 16 nM | 29100 nM
7 | O=C(NC[C@@H]1CCC[C@H](OCCc2ccccc2)C1)c1cn[nH]c1 (single isomer, unassigned) [Example 116] | 25.9 nM | > 100000 nM
8 | O=C(NC[C@H]1CC[C@@H](COc2ccc(Cl)cc2)CO1)c1cc(F)c(O)c(F)c1 [Example 126, N-({(2R,5R)-5-[(4-Chlorophenoxy)methyl]tetrahydro-2H-pyran-2-yl}methyl)-3,5-difluoro-4-hydroxybenzamide] | 18.1 nM | > 100000 nM
9 | O=C(NC[C@H]1CC[C@@H](COc2ccc(Cl)cc2)CO1)c1cn[nH]c1 [Example 120, N-({(2R,5R)-5-[(4-Chlorophenoxy)methyl]tetrahydro-2H-pyran-2-yl}methyl)-1H-pyrazole-4-carboxamide] | 12.2 nM | > 30000 nM
10 | O=C(NC[C@H]1CC[C@@H](COc2ccccn2)CC1)c1cn[nH]c1 [Example 105, N-({cis-4-[(Pyridin-2-yloxy)methyl]cyclohexyl}methyl)-1H-pyrazole-4-carboxamide] | 27.2 nM | > 100000 nM
11 | O=C(NC[C@H]1CC[C@@H](COc2ccccn2)CC1)c1ccc(O)c(F)c1 [Example 89, 3-Fluoro-4-hydroxy-N-({cis-4-[(pyridin-2-yloxy)methyl]cyclohexyl}methyl)benzamide] | 9 nM | > 100000 nM
12 | Cc1ccc(OC[C@@H]2CC[C@H](CNC(=O)c3cn[nH]c3)OC2)cc1 [Example 123, N-({(2R,5R)-5-[(4-Methylphenoxy)methyl]tetrahydro-2H-pyran-2-yl}methyl)-1H-pyrazole-4-carboxamide] | 7.1 nM | > 100000 nM
13 | O=C(NC[C@]1(O)CC[C@H](OCc2ccccc2)CC1)c1ccc(O)cc1 [Example 30, N-{[trans-4-(Benzyloxy)-1-hydroxycyclohexyl]methyl}-4-hydroxybenzamide] | 23.6 nM | > 100000 nM
14 | O=C(NC[C@]1(O)CC[C@H](Cc2ccccc2)CC1)c1ccc(O)cc1 [Example 68, N-[(trans-4-Benzyl-1-hydroxycyclohexyl)methyl]-4-hydroxybenzamide] | 7.3 nM | > 100000 nM
15 | O=C(NC[C@H]1CC[C@@H](CCOc2ccc(F)cc2)CO1)c1cn[nH]c1 [Example 113, N-({(2R,5S)-5-[2-(4-Fluorophenoxy)ethyl]tetrahydro-2H-pyran-2-yl}methyl)-1H-pyrazole-4-carboxamide] | 6.5 nM | > 100000 nM
16 | O=C(NC[C@H]1CC[C@@H](COc2ccccc2)CC1)c1cc(F)c(O)c(F)c1 [Example 108, 3,5-Difluoro-4-hydroxy-N-{[cis-4-(phenoxymethyl)cyclohexyl]methyl}benzamide] | 17.8 nM | > 100000 nM
17 | O=C(NC[C@@H]1CC[C@H](COc2ccccc2)CO1)c1ccc(O)cc1 [Example 36, (−)-4-Hydroxy-N-{[5R-(phenoxymethyl)tetrahydro-2H-pyran-2R-yl]methyl}benzamide] | 7.5 nM | 55200 nM
18 | O=C(NC[C@H]1CC[C@@H](CCOc2ccccc2)CC1)c1cc(F)c(O)c(F)c1 [Example 91, 3,5-Difluoro-4-hydroxy-N-{[cis-4-(2-phenoxyethyl)cyclohexyl]methyl}benzamide] | 13 nM | > 30000 nM
19 | O=C(NC[C@H]1CC[C@@H](OCCOc2ccc(F)cc2)CC1)c1cn[nH]c1 [Example 90, N-({cis-4-[2-(4-Fluorophenoxy)ethoxy]cyclohexyl}methyl)-1H-pyrazole-4-carboxamide] | 5.2 nM | > 100000 nM
20 | O=C(NC[C@H]1CC[C@@H](COCc2ccccc2)CO1)c1ccc(O)cc1 [Example 39, 4-Hydroxy-N-{[5S-(benzyloxymethyl)tetrahydro-2H-pyran-2S-yl]methyl}benzamide] | 8.2 nM | > 100000 nM
21 | O=C(NC[C@@H]1CC[C@H](COc2ccc(F)cc2)CO1)c1ccc(O)cc1 [Example 76, N-({(2S,5S)-5-[(4-Fluorophenoxy)methyl]tetrahydro-2H-pyran-2-yl}methyl)-4-hydroxybenzamide] | 29.3 nM | 27700 nM
22 | O=C(NC[C@H]1CC[C@@H](COc2ccc(Cl)c(F)c2)CO1)c1cn[nH]c1 [Example 129, N-({(2R,5R)-5-[(4-Chloro-3-fluorophenoxy)methyl]tetrahydro-2H-pyran-2-yl}methyl)-1H-pyrazole-4-carboxamide] | 10.3 nM | > 30000 nM
23 | O=C(NC[C@H]1CC[C@@H](COc2ccc(F)cc2)CO1)c1ccc(O)cc1 [Example 75, N-({(2R,5R)-5-[(4-Fluorophenoxy)methyl]tetrahydro-2H-pyran-2-yl}methyl)-4-hydroxybenzamide] | 6.2 nM | 26800 nM
24 | O=C(NC[C@]1(O)CC[C@H](COc2ccccc2F)CC1)c1ccc(O)c(F)c1 [Example 65, 3-Fluoro-N-({trans-4-[(2-fluorophenoxy)methyl]-1-hydroxycyclohexyl}methyl)-4-hydroxybenzamide] | 10 nM | > 100000 nM
25 | O=C(NC[C@H]1CC[C@@H](OCCOc2ccc(F)cc2)CC1)c1ccc(O)nc1 [Example 95] | 4 nM | > 100000 nM
26 | O=C(NC[C@H]1CC[C@@H](COc2ccccc2)OC1)c1ccc(O)cc1 [Example 43, (−)-4-Hydroxy-N-{[(3R,6S)-6-(phenoxymethyl)tetrahydro-2H-pyran-3-yl]methyl}benzamide] | 7.6 nM | > 100000 nM
27 | O=C(NC[C@]1(O)CC[C@H](Cc2ccc(F)cc2)CC1)c1ccc(O)cc1 [Example 81, N-{[trans-4-(4-Fluorobenzyl)-1-hydroxycyclohexyl]methyl}-4-hydroxybenzamide] | 9.5 nM | 35700 nM
28 | O=C(NC[C@H]1CC[C@@H](COc2ccc(F)cc2)OC1)c1ccc(O)cc1 [Example 74, N-({(3R,6S)-6-[(4-Fluorophenoxy)methyl]tetrahydro-2H-pyran-3-yl}methyl)-4-hydroxybenzamide] | 7.2 nM | 54700 nM
29 | O=C(NC[C@@H]1CC[C@H](CCOc2ccc(F)cc2)CO1)c1cn[nH]c1 [Example 114, N-({(2S,5R)-5-[2-(4-fluorophenoxy)ethyl]tetrahydro-2H-pyran-2-yl}methyl)-1H-pyrazole-4-carboxamide] | 7.8 nM | 99400 nM
